The target in experiment [1] is T1, AOS (Parthenium argentatum, UniProt Q40778).
T1 sequence (Q40778 1-473): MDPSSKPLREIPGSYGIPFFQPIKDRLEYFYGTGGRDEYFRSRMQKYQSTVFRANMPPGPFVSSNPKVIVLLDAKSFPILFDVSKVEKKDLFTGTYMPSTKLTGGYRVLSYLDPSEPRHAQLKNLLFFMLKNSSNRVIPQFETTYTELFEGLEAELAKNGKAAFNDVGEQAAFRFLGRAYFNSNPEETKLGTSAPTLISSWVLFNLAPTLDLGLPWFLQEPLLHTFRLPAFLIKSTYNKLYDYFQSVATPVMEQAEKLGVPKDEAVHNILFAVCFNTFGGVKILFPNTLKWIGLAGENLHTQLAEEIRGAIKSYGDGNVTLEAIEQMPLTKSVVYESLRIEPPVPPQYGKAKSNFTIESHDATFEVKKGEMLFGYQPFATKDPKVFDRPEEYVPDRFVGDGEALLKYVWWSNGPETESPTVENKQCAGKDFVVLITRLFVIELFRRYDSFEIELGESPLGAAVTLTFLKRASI
Briefly: Fluorescence spectroscopy of rubber particles incubated with AOS inhibitors. It counts as biochemical, guayule. Also on record: from tissue; host or cells: washed rubber particles of guayule, carrying the endogenous AOS. As to conditions: native rubber particles incubated with 1 mM inhibitor. Here is the method:
Rubber particle suspensions containing approximately 5×10^10 particles ml^-1 or 100 μg μl^-1 rubber were extracted for lipids and analyzed according to Yao et al., J Cell Biochem 51: 488-494 (1993); Eldred, Anal. Biochem. 64: 23-36 (1987), Malshet et al., Lipids 9: 328-332 (1974) and above (see sec. 8.1) using a FluoroMax spectrofluoromoeter (JY/SPEX Instruments SA, Inc.) with an excitation maxima of 300 nm and an emission maxima of 405 nm. Background fluorescence was automatically subtracted. […] The effect of pH on relative fluorescence spectroscopy was performed. The effect of pH on relative fluorescence intensities was also determined on lipids extracted from rubber particle lipids according to Malshet et al., Lipids 9: 328-332 (1974).

In the next experiment the test system is rubber transferase (RuT). The experiment can be described thus: Rubber transferase assay in washed rubber particles ([14C]-IPP incorporation). The class given is biochemical, guayule. The arrangement: inhibition of RuT activity / inhibition of rubber biosynthesis: concentration or dose not given beside the values. The method, then:
RuT assays were performed according to Cornish and Backhaus, Phytochemistry 29: 3809-3813 (1990) using a final reaction volume of 500 μl containing, at final concentration, 3.5 mM MgCl2, 2.5 mM MnCl2 26.7 μM FPP, 85 μM IPP and 1.48 μCi[^14 C]-IPP (sp. act. 57 mCi mM^-1 NEN DuPont) in 50 mM potassium phosphate buffer, pH 8.0. The reaction was initiated by the addition of 200 μl of fresh, triple-washed rubber particle suspensions containing 10-20 mg rubber. Control reactions were made to test IPP incorporation into rubber by omitting FPP or adding 50 mM EDTA to the reaction (Cornish and Backhaus, Phytochem. 29: 3809-3813 (1990)). To control AOS activity, one or more of the following was added to the reaction mix (final concentration): 0.5 to 2 mM SA, 0.5 to 2 mM ASA, 11.2 μM riboflavin plus 11.2 mM TEMED, 0.003% H2 O2, 2.0 U type II porcine pancreatic lipase (Sigma #L-3126) or 9450 U type V soybean lipoxygenase (Sigma #L-6632). These additions were made directly to the washed rubber particles and incubated for 20 min before adding to them to the reaction mix. In reactions that required dark conditions (to prevent the formation of superoxide), assay tubes were foil wrapped. […] H2 O2 was added directly to the particles and incubated for at least 20 min before adding SA or ASA. All RuT assays were run at 15° C. for 16 hours and activity was determined according to Cornish and Backhaus, Phytochemistry 29: 3809-3813 (1990) using liquid scintillation spectroscopy with toluene-based scintillant.

In experiment [2] the target is T1, AOS. As to conditions: for fluorescence over 24 hr, AOS inhibited and antioxidant present: rubber particles, 1 mM ASA plus 1% antioxidant.
The target of experiment [3] is T1, AOS. The experiment can be described thus: Conjugated dienes in lipids extracted from rubber particles incubated with H2O2 (A234). As to conditions: 1 mM inhibitor, 0.05% H2O2. The arrangement: from tissue; host or cells: washed rubber particles of guayule, carrying the endogenous AOS. It counts as biochemical, guayule. The source says: Lipids from these particles were extracted and analyzed spectrophotometrically at 234 nm according to Aust, Lipid peroxidation, In: Greenwald R (ed) CRC Handbook of Methods for Oxygen Radical Research, CRC Press, Boca Raton, pp. 203-207 (1985).

Experiment [4] relates to linoleic acid conjugated dienes. The experiment can be described thus: UV spectrophotometry of superoxide-induced linoleic acid conjugated dienes (A234). The class given is biochemical, guayule. As to conditions: AOS preincubated with 1 mM ASA, then linoleic acid + riboflavin/TEMED. Here is the method: Likewise, the effect of superoxide, produced by the riboflavin/TEMED mixture and light, on lipid peroxidation was determined. […] The mixture was exposed to light and scanned in a UV spectrophotometer at 200 to 300 nm at 10 sec intervals for 2 minutes and again at 5 and 10 min. The effect of AOS on superoxide-inducedlinoleic hydroperoxides was determined using partially pure AOS solubilized from fresh rubber particles using the CHAPS extraction and filtration procedure (Pan et al., J Biol Chem 270: 8487-8494, 1995), which removed all remaining rubber. One μg partially pure AOS was added to oxidized linoleic acid and UV scanned at 2 minute intervals.
This mixture was scanned at A234 followed by addition of riboflavin/TEMED and exposure to 10 min. of light, to produce superoxide. The mixture was rescanned at 10 min intervals.

Experiment [5] deals with T1, AOS. The experiment can be described thus: Superoxide/colorimetry (riboflavin/TEMED/NBT) assay. As to conditions: for NBT color after superoxide: rubber particles incubated with inhibitor.
Protocol: A 1-5 μl suspension of fatty acids or rubber particles (at 100 μg μl^-1) was added directly to 200 μl 50 mM potassium phosphate buffer, pH 8.0 containing 2.8 μM riboflavin and 28 mM tetramethyllethylenediamine (TEMED). […] Superoxide was generated by exposing the combined particles and riboflavin/TEMED solution to light, provided by a 100 W bulb, spaced 30 cm from the suspension, for 10 minutes. The degree of reduction was then determined by adding 200 μl 50 mM potassium phosphate buffer, pH 8.0 containing 2.45 mM nitroblue tetrazolium (NBT) and monitoring for 10 min. Reduction of NBT caused a yellow to blue color change. The effect of CO on AOS inhibition and its reversal by exposure to high light was tested by placing the CO and O2 treated suspension directly in front of a water-cooled, slide projector lamp and exposing the mixture to bright light for 1, 5 or 10 min before performing the NBT assay.
If SOD is present, NBT remains yellow. […] If AOS were active, rubber particles would be protected from peroxidation and NBT would be reduced by superoxide resulting in a blue color. However, if AOS were inactivated, then rubber particles would act as a sink for superoxide and NBT would not be reduced to blue tetrasodium,or would be reduced at a slower rate. For this assay to work, endogenous SOD must not be present in rubber particles.
Setting [6] is: salicylate + H2O2 in place of superoxide.
Setting [7] is: salicylate + non-photoreduced riboflavin/TEMED (no superoxide), compared to controls.
[8] abbreviates: salicylate + superoxide (riboflavin/TEMED plus light).

Values joined by “and” are separate entries in the source; they are usually repeats but may differ in a detail not shown here. Equal values may be shown once.

For `O=C(O)c1cc(S(=O)(=O)O)ccc1O` [5SSA, 5-sulfosalicylic acid], at AOS [1], the “fluorescence of rubber particles” value is reported as “did not fluoresce”.
On to `CC(=O)Oc1ccccc1C(=O)O` [ASA, acetylsalicylic acid], for which the RuT activity is listed as 599.3 ± 11.8 nmol IPP mg^-1 dry rubber 16 hr^-1 in the experiment on rubber transferase (RuT) (0.5 mM inhibitor, riboflavin/TEMED + dark (no superoxide)) and 421.6 ± 105.4 nmol IPP mg^-1 dry rubber 16 hr^-1 in the experiment on rubber transferase (RuT) (1 mM inhibitor, riboflavin/TEMED + dark (no superoxide)). Further, the results for the “inhibition of RuT activity” value in the experiment with rubber transferase (RuT) (setting [6]), in the experiment on rubber transferase (RuT) (setting [7]) and with rubber transferase (RuT) (setting [8]) were 89%, 20% and 88%, respectively. Besides, the “fluorescence over 24 hr” value at AOS [2] (rubber particles in presence of 1 mM ASA) was “fluorescence increased up to 12 hours and then plateaued”. Further, the “conjugated diene formation in extracted lipids (A234)” value at AOS [3] is reported as “Conjugated dienes formed only when AOS was inhibited by ASA in the presence of H2 O2”. Moreover, the “fluorescence of rubber particles” value at AOS [1] is “striking increase in fluorescence”. In experiment [4], the “A234 on exposure to superoxide, AOS first incubated with inhibitor” value is “notable increase in A234”. The “NBT color after superoxide” value at AOS [5] is “yellow”.
Consider `Cc1cc(C(C)(C)C)c(O)c(C(C)(C)C)c1` [BHT], for which the “fluorescence over 24 hr, AOS inhibited and antioxidant present” value on AOS [2] is “slight increase in fluorescence”.
For `[C-]#[O+]` [CO, carbon monoxide], the “restoration of AOS activity” value is recorded as “partial restoration of AOS” on AOS [5] (CO-bound-AOS in rubber particles, high light 1 min) and “maximum restoration of AOS activity” at AOS [5] (CO-bound-AOS in rubber particles, high light 5 min). Further, at AOS [5] (CO-bound-AOS in rubber particles, more than 5 min high light), the AOS activity entry is reported as “reduction in AOS activity”. On AOS [5] (CO-treated rubber particles, strong light), the “NBT color when CO inhibition was reversed by strong light” value is “grayish yellow”. At AOS [5], the “NBT color after superoxide” value is given as “yellow”.
Consider `O=C(O)c1ccccc1O` [SA, salicylic acid], for which, in the experiment with rubber transferase (RuT) (1 mM SA alone, 960 min), the “drop in RuT activity” value was 10-30%. In addition, the RuT activity in the experiment with rubber transferase (RuT) (1 mM SA alone, Experiment 1) is 402.5 ± 18.2 nmol IPP mg^-1 dry rubber 16 hr^-1; with rubber transferase (RuT) (1 mM SA alone, Experiment 2) it was 320.4 ± 4.5 nmol IPP mg^-1 dry rubber 16 hr^-1; in the experiment on rubber transferase (RuT) (1 mM SA alone, Experiment 3), 315.9 ± 10.6 nmol IPP mg^-1 dry rubber 16 hr^-1; with rubber transferase (RuT) (1 mM inhibitor, riboflavin/TEMED + light (superoxide)), 74.2 ± 1.29 nmol IPP mg^-1 dry rubber 16 hr^-1 and 98.3 ± 1.56 nmol IPP mg^-1 dry rubber 16 hr^-1 and 74.2 ± 1.3 nmol IPP mg^-1 dry rubber 16 hr^-1; in the experiment on rubber transferase (RuT) (1.5 mM inhibitor, no superoxide (dark)), 236.7 ± 3.0 nmol IPP mg^-1 dry rubber 16 h; in the experiment with rubber transferase (RuT) (1.5 mM inhibitor, superoxide (light)) it was 105.3 ± 3.2 nmol IPP mg^-1 dry rubber 16 h. Also, the RuT activity entry in the experiment on rubber transferase (RuT) (2 mM SA, photo reduced and non-photo reduced riboflavin/TEMED) is given as “severely inhibited”; in the experiment on rubber transferase (RuT) (2 mM inhibitor, no superoxide (dark)) it was 25.1 ± 1.2 nmol IPP mg^-1 dry rubber 16 h; in the experiment with rubber transferase (RuT) (2 mM inhibitor, superoxide (light)), 18.5 ± 9.24 nmol IPP mg^-1 dry rubber 16 hr^-1. Moreover, the “inhibition of RuT activity” value with rubber transferase (RuT) (setting [6]) is 89%; in the experiment on rubber transferase (RuT) (setting [7]), 20%; in the experiment on rubber transferase (RuT) (setting [8]), 88%. The “fluorescence of rubber particles” value on AOS [1] is listed as “Identical fluorescence patterns”. For the same molecule, the “NBT color after superoxide” value at AOS [5] is reported as “yellow”.
For the molecule `OCc1ccccc1O[C@@H]1O[C@H](CO)[C@@H](O)[C@H](O)[C@H]1O` [SAL, salicin], the “fluorescence of rubber particles” value on AOS [1] was “did not fluoresce”.
For the molecule `Cc1c(C)c2c(c(C)c1O)CCC(C)(CCCC(C)CCCC(C)CCCC(C)C)O2` (stereo not drawn) [α-tocopherol], the “fluorescence over 24 hr, AOS inhibited and antioxidant present” value at AOS [2] is recorded as “slight increase in fluorescence”.

B1: lipoxygenase: type V soybean lipoxygenase (Sigma #L-6632) (protein, UniProt P08170 1-839, looked up)
Seed linoleate …: MFSAGHKIKGTVVLMPKNELEVNPDGSAVDNLNAFLGRSVSLQLISATKADAHGKGKVGKDTFLEGINTSLPTLGAGESAFNIHFEWDGSMGIPGAFYIKNYMQVEFFLKSLTLEAISNQGTIRFVCNSWVYNTKLYKSVRIFFANHTYVPSETPAPLVSYREEELKSLRGNGTGERKEYDRIYDYDVYNDLGNPDKSEKLARPVLGGSSTFPYPRRGRTGRGPTVTDPNTEKQGEVFYVPRDENLGHLKSKDALEIGTKSLSQIVQPAFESAFDLKSTPIEFHSFQDVHDLYEGGIKLPRDVISTIIPLPVIKELYRTDGQHILKFPQPHVVQVSQSAWMTDEEFAREMIAGVNPCVIRGLEEFPPKSNLDPAIYGDQSSKITADSLDLDGYTMDEALGSRRLFMLDYHDIFMPYVRQINQLNSAKTYATRTILFLREDGTLKPVAIELSLPHSAGDLSAAVSQVVLPAKEGVESTIWLLAKAYVIVNDSCYHQLMSHWLNTHAAMEPFVIATHRHLSVLHPIYKLLTPHYRNNMNINALARQSLINANGIIETTFLPSKYSVEMSSAVYKNWVFTDQALPADLIKRGVAIKDPSTPHGVRLLIEDYPYAADGLEIWAAIKTWVQEYVPLYYARDDDVKNDSELQHWWKEAVEKGHGDLKDKPWWPKLQTLEDLVEVCLIIIWIASALHAAVNFGQYPYGGLIMNRPTASRRLLPEKGTPEYEEMINNHEKAYLRTITSKLPTLISLSVIEILSTHASDEVYLGQRDNPHWTSDSKALQAFQKFGNKLKEIEEKLVRRNNDPSLQGNRLGPVQLPYTLLYPSSEEGLTFRGIPNSISI
B1: the RuT activity entry is “activity similar to positive controls” in the experiment with rubber transferase (RuT) (lipoxygenase alone) and “did not appear to affect RuT activity” with rubber transferase (RuT) (lipoxygenase alone, listed as Lipoxygenase). In addition, the “inhibition of rubber biosynthesis” value with rubber transferase (RuT) (lipoxygenase treatment and AOS inhibition) worked out at 30%.
